Measured values reported in the supplement of paper PMC10307832.

Key:
Experiment in all cases: relative viability (nuclei count vs DMSO), 5 days (fraction); higher = more cells survive
COR-L 105 = tested on: COR-L 105
Outline: (§1)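 Relative viability divides the nuclei count in treated wells by that in vehicle wells. Lung cancer cell lines were seeded in 1536-well plates, dosed by pin tool the next day, and fixed and stained after 5 days in one step with final 0.05% Triton X-100, 1% formaldehyde and 1 ug/ml Hoechst. Dosing was a single drug or a fixed anchor-drug dose plus five library-drug doses (not always all listed) in √10 steps, and values are medians of duplicate plates imaged at 4×.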

COR-L23 = tested on: COR-L23
Outline: as §1

HARA = tested on: HARA
Outline: as §1

HCC-15 = tested on: HCC-15
Outline: as §1

HOP-62 = tested on: HOP-62
Outline: as §1

NCI-H1355 = tested on: NCI-H1355
Outline: as §1

NCI-H1395 = tested on: NCI-H1395
Outline: as §1

NCI-H1734 = tested on: NCI-H1734
Outline: as §1

NCI-H1755 = tested on: NCI-H1755
Outline: as §1

NCI-H1792 = tested on: NCI-H1792
Outline: as §1

NCI-H1793 = tested on: NCI-H1793
Outline: as §1

NCI-H1993 = tested on: NCI-H1993
Outline: as §1

NCI-H2009 = tested on: NCI-H2009
Outline: as §1

NCI-H2170 = tested on: NCI-H2170
Outline: as §1

NCI-H2228 = tested on: NCI-H2228
Outline: as §1

NCI-H2347 = tested on: NCI-H2347
Outline: as §1

NCI-H647 = tested on: NCI-H647
Outline: as §1

NCI-H838 = tested on: NCI-H838
Outline: as §1

SK-MES-1 = tested on: SK-MES-1
Outline: as §1

UMC-11 = tested on: UMC-11
Outline: as §1

## Cc1sc2c(c1C)C(c1ccc(Cl)cc1)=N[C@@H](CC(=O)OC(C)(C)C)c1nnc(C)n1-2 [JQ1] + CC1(C)CCC(c2ccc(Cl)cc2)=C(CN2CCN(c3ccc(C(=O)NS(=O)(=O)c4ccc(N[C@H](CCN5CCOCC5)CSc5ccccc5)c(S(=O)(=O)C(F)(F)F)c4)cc3)CC2)C1 [Navitoclax] (partner 0.5 µM)
COR-L 105; first compound 0.04 µM
  relative viability: 0.707
COR-L 105; first compound 0.1265 µM
  relative viability: 0.567
COR-L 105; first compound 0.4 µM
  relative viability: 0.462
COR-L 105; first compound 1.265 µM
  relative viability: 0.282
COR-L 105; first compound 4 µM
  relative viability: 0.326
COR-L23; first compound 0.04 µM
  relative viability: 1.02
COR-L23; first compound 0.1265 µM
  relative viability: 0.763
COR-L23; first compound 0.4 µM
  relative viability: 0.858
COR-L23; first compound 1.265 µM
  relative viability: 0.357
COR-L23; first compound 4 µM
  relative viability: 0.155
HARA; first compound 0.04 µM
  relative viability: 1.11
HARA; first compound 0.1265 µM
  relative viability: 1
HARA; first compound 0.4 µM
  relative viability: 0.781
HARA; first compound 1.265 µM
  relative viability: 0.261
HARA; first compound 4 µM
  relative viability: 0.234
HCC-15; first compound 0.04 µM
  relative viability: 0.692
HCC-15; first compound 0.4 µM
  relative viability: 0.532
HCC-15; first compound 1.265 µM
  relative viability: 0.331
HCC-15; first compound 4 µM
  relative viability: 0.299
HOP-62; first compound 0.04 µM
  relative viability: 0.926
HOP-62; first compound 0.1265 µM
  relative viability: 0.841
HOP-62; first compound 0.4 µM
  relative viability: 0.516
HOP-62; first compound 1.265 µM
  relative viability: 0.133
HOP-62; first compound 4 µM
  relative viability: 0.0774
NCI-H1355; first compound 0.04 µM
  relative viability: 0.87
NCI-H1355; first compound 0.1265 µM
  relative viability: 0.972
NCI-H1355; first compound 0.4 µM
  relative viability: 0.85
NCI-H1355; first compound 1.265 µM
  relative viability: 0.52
NCI-H1355; first compound 4 µM
  relative viability: 0.476
NCI-H1395; first compound 0.04 µM
  relative viability: 1.13
NCI-H1395; first compound 0.1265 µM
  relative viability: 1.03
NCI-H1395; first compound 0.4 µM
  relative viability: 0.951
NCI-H1395; first compound 1.265 µM
  relative viability: 0.633
NCI-H1395; first compound 4 µM
  relative viability: 0.516
NCI-H1734; first compound 0.04 µM
  relative viability: 0.849
NCI-H1734; first compound 0.1265 µM
  relative viability: 0.825
NCI-H1734; first compound 0.4 µM
  relative viability: 0.83
NCI-H1734; first compound 1.265 µM
  relative viability: 0.407
NCI-H1734; first compound 4 µM
  relative viability: 0.233
NCI-H1755; first compound 0.04 µM
  relative viability: 1.01
NCI-H1755; first compound 0.1265 µM
  relative viability: 0.991
NCI-H1755; first compound 0.4 µM
  relative viability: 0.922
NCI-H1755; first compound 1.265 µM
  relative viability: 0.59
NCI-H1755; first compound 4 µM
  relative viability: 0.455
NCI-H1792; first compound 0.04 µM
  relative viability: 0.656
NCI-H1792; first compound 0.4 µM
  relative viability: 0.708
NCI-H1792; first compound 1.265 µM
  relative viability: 0.622
NCI-H1792; first compound 4 µM
  relative viability: 0.31
NCI-H1793; first compound 0.04 µM
  relative viability: 0.408
NCI-H1793; first compound 0.1265 µM
  relative viability: 0.345
NCI-H1793; first compound 0.4 µM
  relative viability: 0.515
NCI-H1793; first compound 1.265 µM
  relative viability: 0.444
NCI-H1793; first compound 4 µM
  relative viability: 0.377
NCI-H1993; first compound 0.04 µM
  relative viability: 0.929
NCI-H1993; first compound 0.1265 µM
  relative viability: 0.811
NCI-H1993; first compound 0.4 µM
  relative viability: 0.861
NCI-H1993; first compound 1.265 µM
  relative viability: 0.85
NCI-H1993; first compound 4 µM
  relative viability: 0.875
NCI-H2009; first compound 0.04 µM
  relative viability: 1.2
NCI-H2009; first compound 0.1265 µM
  relative viability: 0.938
NCI-H2009; first compound 0.4 µM
  relative viability: 0.837
NCI-H2009; first compound 1.265 µM
  relative viability: 0.359
NCI-H2009; first compound 4 µM
  relative viability: 0.388
NCI-H2170; first compound 0.04 µM
  relative viability: 0.652
NCI-H2170; first compound 0.1265 µM
  relative viability: 0.641
NCI-H2170; first compound 0.4 µM
  relative viability: 0.452
NCI-H2170; first compound 1.265 µM
  relative viability: 0.279
NCI-H2170; first compound 4 µM
  relative viability: 0.285
NCI-H2228; first compound 0.04 µM
  relative viability: 1.13
NCI-H2228; first compound 0.1265 µM
  relative viability: 0.671
NCI-H2228; first compound 0.4 µM
  relative viability: 0.667
NCI-H2228; first compound 1.265 µM
  relative viability: 0.557
NCI-H2228; first compound 4 µM
  relative viability: 0.308
NCI-H2347; first compound 0.04 µM
  relative viability: 0.782
NCI-H2347; first compound 0.1265 µM
  relative viability: 0.691
NCI-H2347; first compound 0.4 µM
  relative viability: 0.571
NCI-H2347; first compound 1.265 µM
  relative viability: 0.316
NCI-H2347; first compound 4 µM
  relative viability: 0.286
NCI-H647; first compound 0.04 µM
  relative viability: 1.1
NCI-H647; first compound 0.1265 µM
  relative viability: 0.709
NCI-H647; first compound 0.4 µM
  relative viability: 0.498
NCI-H647; first compound 1.265 µM
  relative viability: 0.141
NCI-H647; first compound 4 µM
  relative viability: 0.0972
NCI-H838; first compound 0.04 µM
  relative viability: 1.1
NCI-H838; first compound 0.1265 µM
  relative viability: 0.592
NCI-H838; first compound 0.4 µM
  relative viability: 0.662
NCI-H838; first compound 1.265 µM
  relative viability: 0.355
NCI-H838; first compound 4 µM
  relative viability: 0.247
SK-MES-1; first compound 0.04 µM
  relative viability: 1.29
SK-MES-1; first compound 0.1265 µM
  relative viability: 1.07
SK-MES-1; first compound 0.4 µM
  relative viability: 1.12
SK-MES-1; first compound 1.265 µM
  relative viability: 0.477
SK-MES-1; first compound 4 µM
  relative viability: 0.264
UMC-11; first compound 0.04 µM
  relative viability: 0.266
UMC-11; first compound 0.1265 µM
  relative viability: 0.292
UMC-11; first compound 0.4 µM
  relative viability: 0.205
UMC-11; first compound 1.265 µM
  relative viability: 0.134
UMC-11; first compound 4 µM
  relative viability: 0.142
